# Experiments:
# TesA [1] = biological target: T1, TesA (Escherichia coli, UniProt P0ADA1); experiment: ester hydrolysis by live cells expressing TesA, absorbance at […] nm; type: cell-based; parameters: for the cell assays expressed from a pET vector in E. coli delta-tesA (Keio) cells; conditions: PBS; live E. coli delta-tesA cells; 2.5 mM substrate after mixing
# T1 sequence (P0ADA1 27-208): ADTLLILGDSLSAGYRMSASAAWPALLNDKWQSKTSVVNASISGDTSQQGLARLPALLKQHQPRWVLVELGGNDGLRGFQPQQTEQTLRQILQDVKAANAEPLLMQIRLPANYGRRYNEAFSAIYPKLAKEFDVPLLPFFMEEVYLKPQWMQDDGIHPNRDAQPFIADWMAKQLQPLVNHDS
# YbbAP-TesA = biological target: T2, YbbAP-TesA (Escherichia coli, UniProt P0ADA1); experiment: Michaelis-Menten, absorbance at […] nm; type: biochemical; conditions: PBS with 0.01% LMNG, 21 °C
# T2 construct: co-expressed from pETDuet1-based plasmids in E. coli C43(DE3); His-tag on YbbA; complex in LMNG detergent; 2:1:1 YbbA:YbbP:TesA; Uncharacterized ABC transporter permease YbbP
# T2 sequence (P0ADA1 27-208): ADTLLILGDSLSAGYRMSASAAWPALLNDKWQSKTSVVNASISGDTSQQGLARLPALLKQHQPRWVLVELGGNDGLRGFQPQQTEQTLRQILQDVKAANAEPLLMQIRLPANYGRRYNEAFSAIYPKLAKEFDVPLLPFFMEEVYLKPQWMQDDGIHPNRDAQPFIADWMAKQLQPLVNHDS
# T2 sequence (P0A9T8 1-228 partner): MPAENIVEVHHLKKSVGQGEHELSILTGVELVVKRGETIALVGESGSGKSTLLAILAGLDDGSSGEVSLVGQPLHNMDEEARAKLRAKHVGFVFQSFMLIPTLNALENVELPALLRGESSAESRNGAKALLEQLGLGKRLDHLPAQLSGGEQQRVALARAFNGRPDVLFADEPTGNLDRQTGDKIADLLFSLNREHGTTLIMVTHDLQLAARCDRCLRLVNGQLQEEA
# T2 sequence (P77504 1-804 partner): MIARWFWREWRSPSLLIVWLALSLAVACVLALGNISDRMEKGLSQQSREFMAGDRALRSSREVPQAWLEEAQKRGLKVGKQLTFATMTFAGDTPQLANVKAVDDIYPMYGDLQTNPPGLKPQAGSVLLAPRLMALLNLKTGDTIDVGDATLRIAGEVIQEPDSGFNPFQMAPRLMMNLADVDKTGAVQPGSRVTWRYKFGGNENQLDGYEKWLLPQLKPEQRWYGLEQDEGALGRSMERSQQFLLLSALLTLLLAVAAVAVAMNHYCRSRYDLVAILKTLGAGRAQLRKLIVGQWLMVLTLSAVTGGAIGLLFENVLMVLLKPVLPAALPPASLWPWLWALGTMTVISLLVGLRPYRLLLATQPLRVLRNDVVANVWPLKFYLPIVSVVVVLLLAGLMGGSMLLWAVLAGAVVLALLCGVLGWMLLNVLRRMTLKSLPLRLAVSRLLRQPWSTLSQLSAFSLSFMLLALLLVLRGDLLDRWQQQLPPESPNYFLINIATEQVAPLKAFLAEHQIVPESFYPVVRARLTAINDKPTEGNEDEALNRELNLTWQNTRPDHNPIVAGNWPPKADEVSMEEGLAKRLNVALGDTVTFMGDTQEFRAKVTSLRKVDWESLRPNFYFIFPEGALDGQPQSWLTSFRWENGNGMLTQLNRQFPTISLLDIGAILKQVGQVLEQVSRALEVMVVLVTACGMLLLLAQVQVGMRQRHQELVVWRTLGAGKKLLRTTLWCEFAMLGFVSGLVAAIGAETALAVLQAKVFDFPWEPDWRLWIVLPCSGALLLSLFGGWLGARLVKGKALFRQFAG
# TesA [2] = biological target: T1, TesA; experiment: absorbance assay; type: biochemical; parameters: isolated TesA; for the cell assays expressed from a pET vector in E. coli delta-tesA (Keio) cells; conditions: isolated TesA
# PaTesA = biological target: T3, PaTesA (Pseudomonas aeruginosa, UniProt Q9HZY8); experiment: absorbance at […] nm; type: biochemical; conditions: purified tagged enzyme
# T3 construct: gene tesA; purified, N-terminal tag
# T3 sequence (Q9HZY8 22-201): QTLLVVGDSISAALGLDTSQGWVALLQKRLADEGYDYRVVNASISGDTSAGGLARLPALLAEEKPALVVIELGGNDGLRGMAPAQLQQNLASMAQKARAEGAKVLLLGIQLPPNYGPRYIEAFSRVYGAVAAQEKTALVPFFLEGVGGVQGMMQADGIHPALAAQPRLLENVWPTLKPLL
# Escherichia coli BW25113 = system: T4, Escherichia coli BW25113; experiment: microbe, parasite or virus in culture; parameters: antibiotic susceptibility testing of E. coli strains, MIC, median of replicates; conditions: read-out: Median MIC
# T4 construct: BW25113
# Source text: (§1) Supplementary file pbio.3003427.s003.docx: S3 Table Antibiotic susceptibility testing for TesA and YbbP knockout strains. (DOCX)
# [3] = system: T5, Escherichia coli C43(DE3); experiment: microbe, parasite or virus in culture; parameters: antibiotic susceptibility testing of E. coli strains, MIC, median of replicates; conditions: D=+IPTG +Kan, median MIC, empty pET28, IPTG and kanamycin present
# T5 construct: C43(DE3) carrying empty pET28 vector
# Source text: as §1
# YbbP = biological target: T6, YbbP (E. coli, UniProt P77504 1-804); experiment: cryo-EM structure; YbbAP-TesA(Ser36Ala) complex with AMP-PNP, co-expressed and co-purified (Ni-affinity, SEC), 0.01% LMNG; 4.6 Å; conditions: both partners purified
# T6 construct: YbbP, transmembrane component (10 transmembrane helices, two periplasmic domains) of the YbbAP Type VII ABC transporter, Escherichia coli; source: size exclusion chromatography for structure determination), in 0.01% LMNG
# T6 sequence: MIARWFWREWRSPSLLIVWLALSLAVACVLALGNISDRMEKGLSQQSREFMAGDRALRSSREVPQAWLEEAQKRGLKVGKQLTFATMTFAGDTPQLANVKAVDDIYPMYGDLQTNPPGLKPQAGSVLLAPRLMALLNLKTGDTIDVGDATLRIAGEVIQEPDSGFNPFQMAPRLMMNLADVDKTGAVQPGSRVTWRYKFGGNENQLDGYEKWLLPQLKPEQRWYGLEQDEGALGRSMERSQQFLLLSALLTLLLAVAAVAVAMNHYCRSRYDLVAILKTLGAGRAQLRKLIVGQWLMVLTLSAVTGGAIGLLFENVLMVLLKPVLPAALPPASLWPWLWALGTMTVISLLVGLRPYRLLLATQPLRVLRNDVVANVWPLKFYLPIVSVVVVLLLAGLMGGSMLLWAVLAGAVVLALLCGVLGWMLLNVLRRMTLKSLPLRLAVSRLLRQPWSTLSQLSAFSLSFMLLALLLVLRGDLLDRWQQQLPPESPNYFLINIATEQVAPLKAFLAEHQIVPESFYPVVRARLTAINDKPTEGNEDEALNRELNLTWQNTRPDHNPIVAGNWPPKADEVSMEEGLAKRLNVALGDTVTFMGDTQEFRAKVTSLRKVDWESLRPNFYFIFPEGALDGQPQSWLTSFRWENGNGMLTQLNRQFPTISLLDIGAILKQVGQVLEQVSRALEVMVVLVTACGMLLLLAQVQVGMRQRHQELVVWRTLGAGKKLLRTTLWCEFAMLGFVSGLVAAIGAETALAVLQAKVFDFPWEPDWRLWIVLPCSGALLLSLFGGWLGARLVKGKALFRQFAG
molecule,measurement,setting,value
CCCC(=O)Oc1ccc([N+](=O)[O-])cc1 [p-nitrophenyl butyrate],relative rate,TesA [1],expressing either TesA (or YbbAP-TesA) from a plasmid show robust hydrolytic activity
O=C(Cc1cccs1)N[C@@H]1C(=O)N2C(C(=O)O)=C(/C=C/c3ccc([N+](=O)[O-])cc3[N+](=O)[O-])CS[C@H]12 [nitrocefin],Km,YbbAP-TesA,< 0.01 µM
same,absorbance assay,TesA [2],YbbAP-TesA (and isolated TesA) can hydrolyze nitrocefin
same,absorbance at 488 nm,PaTesA,We also separately confirmed that the P. aeruginosa TesA can hydrolyze nitrocefin
CC(=O)OCC1=C(C(=O)O)N2C(=O)[C@@H](NC(=O)Cc3cccs3)[C@H]2SC1 [Cephalothin],MIC,Escherichia coli BW25113,12 µg/mL
CC1(C)S[C@@H]2[C@H](NC(=O)[C@H](N)c3ccccc3)C(=O)N2[C@H]1C(=O)O [Ampicillin],MIC,[3],8 µg/mL
CC1(C)S[C@@H]2[C@H](NC(=O)Cc3ccccc3)C(=O)N2[C@H]1C(=O)O [Penicillin G],MIC,Escherichia coli BW25113,32 µg/mL
"TesA Ser36Ala (enzyme, E. coli, UniProt P0ADA1 27-208, looked up, TesA, periplasmic multifunctional esterase/thioesterase/lysophospholipase, Escherichia coli, with the catalytic site mutation Ser36Ala; printed residue numbers fit the precursor with its signal peptide; also called TesA catalytic site mutation (Ser36Ala); source: size exclusion chromatography for structure determination), in 0.01% LMNG) ADTLLILGDALSAGYRMSASAAWPALLNDKWQSKTSVVNASISGDTSQQGLARLPALLKQHQPRWVLVELGGNDGLRGFQPQQTEQTLRQILQDVKAANAEPLLMQIRLPANYGRRYNEAFSAIYPKLAKEFDVPLLPFFMEEVYLKPQWMQDDGIHPNRDAQPFIADWMAKQLQPLVNHDS",stoichiometry N,YbbP,1
"YbbA (natural protein, E. coli, also called ABC domain; source: size exclusion chromatography for structure determination), in 0.01% LMNG) MPAENIVEVHHLKKSVGQGEHELSILTGVELVVKRGETIALVGESGSGKSTLLAILAGLDDGSSGEVSLVGQPLHNMDEEARAKLRAKHVGFVFQSFMLIPTLNALENVELPALLRGESSAESRNGAKALLEQLGLGKRLDHLPAQLSGGEQQRVALARAFNGRPDVLFADEPTGNLDRQTGDKIADLLFSLNREHGTTLIMVTHDLQLAARCDRCLRLVNGQLQEEA",stoichiometry N,YbbP,2
